# From publication PMC7594953 (Acta Pharmacologica Sinica, 2020)
# Entries after “also recorded” stand apart in the source; their conditions may differ.
# What was measured:
# [1] = system: SARS2-S pseudovirus; assay: microbe, parasite or virus in culture; conditions: Huh-7, 48 h; for EC90: read-out: SARS2-S pseudovirus EC90; for EC50: read-out: SARS2-S pseudovirus EC50
# [2] = system: SARS-CoV-2 (WIV04); assay type: cell-based
# [3] = system: SARS-CoV S pseudovirus; assay: microbe, parasite or virus in culture; assay type: cell-based; conditions: Severe acute respiratory syndrome coronavirus; for EC90: Huh-7, read-out: SARS-CoV S pseudovirus EC90; for EC50: Huh-7, read-out: SARS-CoV S pseudovirus EC50
# [4] = system: VSV-G pseudovirus; assay: microbe, parasite or virus in culture; assay type: cell-based; conditions: Huh-7, read-out: VSV-G pseudovirus EC50
# [5] = in vitro; conditions: human
# [6] = system: SARS2-S pseudovirus; assay: in vitro; conditions: human
# [7] = system: SARS2-S pseudovirus; conditions: Huh-7 cells, screening at 20 µM
# [8] = system: COVID-19; conditions: critically ill patients; cited from earlier work
# [9] = Huh-7 CC50, Table 2, mean ± SEM from two independent experiments
Structure (SMILES),EC90 [1],Activity against native SARS-CoV-2 replication (in words) [2],EC90 [3],EC50 [1],EC50 [4],"CC50 [5, 9]",EC50 [3],selectivity ratio [6],CC50 ([5]; Huh7 CC50),Activity in SARS2-S pseudovirus screening (in words) [7],Improvement of oxygen support [8]
CCCCc1oc2ccccc2c1C(=O)c1cc(I)c(OCCN(CC)CC)c(I)c1 [Amiodarone],19.4 µM,significantly inhibited SARS2 replication,> 20 µM,,,,,,,,
CN1CCCC(n2nc(Cc3ccc(Cl)cc3)c3ccccc3c2=O)CC1 (stereo not drawn) [Azelastine],5.63 µM,significantly inhibited SARS2 replication,> 20 µM,1.81 µM,> 20 µM,> 20 µM,2.36 ± 1.57 µM,> 11.3,,,
COc1cc(Nc2c(C#N)cnc3cc(OCCCN4CCN(C)CC4)c(OC)cc23)c(Cl)cc1Cl [Bosutinib],1.56 µM,significantly inhibited SARS2 replication,3.15 ± 0.01 µM,1.3 µM,5.07 µM,13.6 ± 2.16 µM,1.04 ± 0.05 µM,13.6,,,
CN(C)CC/C=C1/c2ccccc2Sc2ccc(Cl)cc21 [Chlorprothixene],23.8 µM,failed to show activity; also recorded: no anti-SARS-CoV-2 activity,,2.15 µM,> 20 µM,,,> 11.9,,,
CN(C)[C@@H](CCOc1cccc2ccccc12)c1ccccc1 [Dapoxetine],18 µM,,,1.19 µM,18.9 µM,,,13.1,,,
OCCN1CCN(CCC=C2c3ccccc3Sc3ccc(C(F)(F)F)cc32)CC1 [Flupenthixol],8.68 µM,significantly inhibited SARS2 replication,10.8 ± 1.05 µM,1.45 µM,17.9 µM,14.7 ± 3.28 µM,1.39 ± 0.35 µM,11.7,,,
COc1cc2ncnc(Nc3ccc(F)c(Cl)c3)c2cc1OCCCN1CCOCC1 [Gefitinib],20.3 µM,,,,,,,,,,
CNCCC=C1c2ccccc2CCc2ccccc21 [Nortriptyline],5.26 µM,failed to show activity,,1.06 µM,17.2 µM,,,14.5,16.8 µM,,
OCCN1CCN(CCCN2c3ccccc3Sc3ccc(Cl)cc32)CC1 [Perphenazine],> 20 µM,failed to show activity,,2.14 µM,> 20 µM,,,14.7,,,
CC(CN1c2ccccc2Sc2ccccc21)N(C)C (stereo not drawn) [Promethazine],18.2 µM,failed to show activity,,0.96 µM,> 20 µM,,,> 20.8,,,
CNCCCC1c2ccccc2C=Cc2ccccc21 [Protriptyline],7.21 µM,,,1.68 µM,> 20 µM,,,> 13.5,> 20 µM,,
O=C(O[C@H]1CN2CCC1CC2)N1CCc2ccccc2[C@@H]1c1ccccc1 [Solifenacin],8.98 µM,,,2.03 µM,> 20 µM,,,> 9.66,,,
CN(C)CCOc1ccc(/C(=C(/CCCl)c2ccccc2)c2ccccc2)cc1 [Toremifene],13 µM,significantly inhibited SARS2 replication,> 20 µM,1.92 µM,17.7 µM,> 20 µM,2.28 ± 1.09 µM,8.92,,,
CC(CN(C)C)CN1c2ccccc2Sc2ccccc21 (stereo not drawn) [Trimeprazine],3.77 µM,significantly inhibited SARS2 replication,4.3 ± 0.48 µM,0.97 µM,5.87 µM,16.7 ± 1.89 µM,0.66 ± 0.45 µM,14.2,,,
CN(C)CCCN1c2ccccc2Sc2ccc(Cl)cc21 [chlorpromazine],,,,,,,,,,limited toxicity/activity window,
Cc1ccc(NC(=O)c2ccc(CN3CCN(C)CC3)cc2)cc1Nc1nccc(-c2cccnc2)n1 [imatinib],,,,,,,,,,weak activity,
CCC(CC)COC(=O)[C@H](C)N[P@](=O)(OC[C@H]1O[C@@](C#N)(c2ccc3c(N)ncnn23)[C@H](O)[C@@H]1O)Oc1ccccc1 [remdesivir],,,,,,,,,,,68%
